Data on three compounds can be found in article PMC12655744, “From Bench to Bioactivity: An Integrated Medicinal Development Based on Kinetic and Simulation Assessment of Pyrazolone-Oxadiazole Coupled Benzamide as Promising Inhibitors of Diabetes Mellitus” (Pharmaceuticals, 2025).

What all share (format): biochemical
The test system of one assay is diabetes enzymes. The assay can be described thus: Enzyme kinetic studies (mode of inhibition). The conditions noted are these: Figure 8. The source says:
Enzyme kinetics studies provide the most vital information for how drugs work against the disease, such as binding of the inhibitor with its target, and the concentration required to achieve the desired effects. This study explains that the amount of the drug will be affected, slowing down the biological process. The different patterns for slowing down a process are obtained in the form of curves or slopes. This also provides how various forms of inhibitors or derivatives cause the reaction kinetics to slow in unique ways by adding more inhibitors. […] The substitution of unique functional groups in various sites of the phenyl ring might be responsible for its remarkable efficiency. The graphical curves in Figure 8 show the direct competition of the analog against the substrate for the same spot on the enzyme. […]
100 µL. […] The absorbance at 405 nm was measured using a microplate reader. […] The percentage inhibition was calculated using the following equation, where “Abs” represents absorb- […]
The inhibitory potential of α-Amylase enzyme was evaluated through the standard methodology. […]
Following this, (250 µL) of α-amylase was immediately introduced after heating the mix-ture in hot water. […] Spectrophotometric anal-ysis at 540 nm was conducted to determine absorbance. […]

The target in another assay is alpha-glucosidase. The assay can be described thus: Alpha-glucosidase inhibition assay (absorbance 405 nm). The conditions noted are these: mean ± SEM; read-out: IC50 = α-glucosidase µM ± SEM. On the procedure: 100 µL. The reaction was […] by adding 100 µL of sodium carbonate (200 mM). The absorbance at 405 nm was measured using a microplate reader. This experimental proce-dure was conducted in triplicate, and a control group without the tested compound was included for comparison. […] The percentage […]
inhibition was calculated using the following equation, where “Abs” represents absorb- […]
% inhibition = (Abs control − Abs sample) × 100 […]
(§1) Radius of 12 Å around the Montbretin A binding site was defined for enzyme active site. Accomplishment of docking calculations was achieved using Chem PLP scoring function.
(§2) The geometric parameters and energies were computed by density functional theory at the B3LYP/CEP-631G level of theory, using the […] 98W package of the pro- […]
(§3) grams, on geometries that were optimized at CEP-631G basis set.

A further assay addresses alpha-amylase. The assay can be described thus: Alpha-amylase activity assay (starch/DNS, 540 nm). The conditions noted are these: mean ± SEM; read-out: IC50 = α-amylase µM ± SEM. On the procedure:
% inhibition = (Abs control − Abs sample) × 100
S.3 Alpha-Amylase Activity Assay:
The inhibitory potential of α-Amylase enzyme was evaluated through the standard methodology. A test tube containing (250 µL) of the compound being tested at various concentrations (50–250 µg/mL), (250 µL) of [1% (w/v)] starch solution, and (250 µL) of (1U/mL) alpha-amylase solution was prepared. Post-incubation at 20ᵒC for 3 min, the en-zymatic process was halted by adding (500 µL) of dinitro salicylic acid (color Reagent).
Following this, (250 µL) of α-amylase was immediately introduced after heating the mix-ture in hot water. The mixture was subsequently subjected to heating at 85 ᵒC for duration of 15 min, followed by a 5-min incubation period at room temperature. (4500 µL) of dis-tilled water was added, resulting in a final volume of (6000 µL). Spectrophotometric anal-ysis at 540 nm was conducted to determine absorbance. A control sample devoid of the […]
equation is used for calculation. […]
as §1, §2, §3

Molecules are shown by their SMILES.

With `O=C1C=C(Nc2nnc(NC(=O)c3c(O)cc(O)cc3O)o2)N=N1` [Compound 3], the Mode of inhibition result with diabetes enzymes is “competitive inhibitor”. Besides, the IC50 (in general, the concentration that gives 50% inhibition) stood at 3.6 ± 0.1 µM at alpha-glucosidase and 3.2 ± 0.2 µM on alpha-amylase.
`Cc1ccc(Cl)c(C(=O)Nc2nnc(NC3=CC(=O)N=N3)o2)c1` [Compound 8]: the IC50 at alpha-glucosidase stood at 12.1 ± 0.1 µM; on alpha-amylase it was 11.7 ± 0.2 µM.
With `O=C1C=C(Nc2nnc(NC(=O)c3ccc(Br)cc3)o2)N=N1` [Compound 9], the IC50 on alpha-glucosidase was 16.1 ± 0.2 µM; on alpha-amylase, 15.3 ± 0.1 µM.
